# Test results reported in patent US9113629B2, “4-amino-6-(4-substituted-phenyl)-picolinates and 6-amino-2-(4-substituted-phenyl)-pyrimidine-4-carboxylates and their use as herbicides” (DOW AGROSCIENCES LLC, priority 2013, dated 2015).
# Where two headings read alike, the source gives them in different places.
# Columns and labels:
# [1] = test system: Key Grass and Sedge Weeds as well as Grass Crops; assay: Post-emergent Test II herbicidal activity (Table 6); type: in vivo; settings: post-emergence, 336 h; for pest or weed control at 70 g/ha: 70 g ai/ha; for pest or weed control at 140 g/ha: 140 g ai/ha
# How it was run: (§1)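 Spray rates: a highest rate plus ½×, ¼×, ⅛×, 1/16×, all delivered at 187 L/ha to plants at the first–second true leaf stage. Readout is a visual percent injury score at 14 d, where 100 means complete kill.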
# [2] = test system: Key Broadleaf Weed and Crop Species; assay: Post-emergent Test II herbicidal activity (Table 5); type: in vivo; settings: post-emergence, 336 h, 14 days after application; for pest or weed control at 70 g/ha: application rate 70 g ai/ha; for pest or weed control at 140 g/ha: application rate 140 g ai/ha
# How it was run: as §1
# [3] = CYPES: yellow nutsedge (Cyperus esculentus), read-out: Visual Growth Reduction (%) 14 Days After Application, CYPES
# [4] = DIGSA: crabgrass (Digitaria sanguinalis), read-out: Visual Growth Reduction (%) 14 Days After Application, DIGSA
# [5] = ECHCG: barnyardgrass (Echinochloa crus-galli), read-out: Visual Growth Reduction (%) 14 Days After Application, ECHCG
# [6] = ORYSA: rice (Oryza sativa), crop, read-out: Visual Growth Reduction (%) 14 Days After Application, ORYSA
# [7] = SETFA: giant foxtail (Setaria faberi), read-out: Visual Growth Reduction (%) 14 Days After Application, SETFA
# [8] = SORVU: grain sorghum (Sorghum vulgare), read-out: Visual Growth Reduction (%) 14 Days After Application, SORVU
# [9] = TRZSS (wheat, Triticum aestivum), crop, read-out: Visual Growth Reduction (%) 14 Days After Application, TRZSS
# [10] = ZEAMX: maize, corn (Zea mays), crop, read-out: Visual Growth Reduction (%) 14 Days After Application, ZEAMX
# [11] = ABUTH: velvetleaf (Abutilon theophrasti), read-out: Visual Growth Reduction (%) 14 Days After Application, ABUTH
# [12] = AMARE: redroot pigweed (Amaranthus retroflexus), read-out: Visual Growth Reduction (%) 14 Days After Application, AMARE
# [13] = BRSNN: oilseed-rape, canola (Brassica napus), read-out: Visual Growth Reduction (%) 14 Days After Application, BRSNN
# [14] = CHEAL: lambsquarters (Chenopodium album), read-out: Visual Growth Reduction (%) 14 Days After Application, CHEAL
# [15] = EPHHL: wild poinsettia (Euphorbia heterophylla), read-out: Visual Growth Reduction (%) 14 Days After Application, EPHHL
# [16] = HELAN: sunflower (Helianthus annuus), read-out: Visual Growth Reduction (%) 14 Days After Application, HELAN
# [17] = VIOTR: wild pansy (Viola tricolor), read-out: Visual Growth Reduction (%) 14 Days After Application, VIOTR
Structure (SMILES),"pest or weed control at 70 g/ha [1, 3] [%]","pest or weed control at 140 g/ha [1, 3] [%]","pest or weed control at 70 g/ha [1, 4] [%]","pest or weed control at 140 g/ha [1, 4] [%]","pest or weed control at 70 g/ha [1, 5] [%]","pest or weed control at 140 g/ha [1, 5] [%]","pest or weed control at 70 g/ha [1, 6] [%]","pest or weed control at 140 g/ha [1, 6] [%]","pest or weed control at 70 g/ha [1, 7] [%]","pest or weed control at 140 g/ha [1, 7] [%]","pest or weed control at 70 g/ha [1, 8] [%]","pest or weed control at 140 g/ha [1, 8] [%]","pest or weed control at 70 g/ha [1, 9] [%]","pest or weed control at 140 g/ha [1, 9] [%]","pest or weed control at 70 g/ha [1, 10] [%]","pest or weed control at 140 g/ha [1, 10] [%]","pest or weed control at 70 g/ha [2, 11] [%]","pest or weed control at 140 g/ha [2, 11] [%]","pest or weed control at 70 g/ha [2, 12] [%]","pest or weed control at 140 g/ha [2, 12] [%]",other results
Nc1c(F)c(-c2ccc(Cl)c(F)c2)nc(C(=O)O)c1Cl [Compound 217],85 to 94,85 to 94,85 to 94,85 to 94,95 to 100,95 to 100,60 to 74,75 to 84,95 to 100,95 to 100,85 to 94,85 to 94,75 to 84,75 to 84,85 to 94,95 to 100,95 to 100,95 to 100,95 to 100,95 to 100,"pest or weed control at 70 g/ha [2, 13]: 85 to 94%; pest or weed control at 140 g/ha [2, 13]: 95 to 100%; pest or weed control at 70 g/ha [2, 14]: 95 to 100%; pest or weed control at 140 g/ha [2, 14]: 95 to 100%; pest or weed control at 70 g/ha [2, 15]: 95 to 100%; pest or weed control at 140 g/ha [2, 15]: 95 to 100%; pest or weed control at 70 g/ha [2, 16]: 95 to 100%; pest or weed control at 140 g/ha [2, 16]: 95 to 100%; pest or weed control at 70 g/ha [2, 17]: 95 to 100%; pest or weed control at 140 g/ha [2, 17]: 95 to 100%; melting point: 159 to 161 °C"
C#Cc1ccc(-c2nc(N)c(OC)c(C(=O)OC)n2)c(F)c1F [Compound 84],0 to 29,0 to 29,0 to 29,0 to 29,0 to 29,0 to 29,0 to 29,0 to 29,0 to 29,0 to 29,0 to 29,0 to 29,0 to 29,0 to 29,0 to 29,0 to 29,0 to 29,0 to 29,0 to 29,0 to 29,"pest or weed control at 70 g/ha [2, 13]: 0 to 29%; pest or weed control at 140 g/ha [2, 13]: 0 to 29%; pest or weed control at 70 g/ha [2, 14]: 0 to 29%; pest or weed control at 140 g/ha [2, 14]: 0 to 29%; pest or weed control at 70 g/ha [2, 15]: 0 to 29%; pest or weed control at 140 g/ha [2, 15]: 0 to 29%; pest or weed control at 140 g/ha [2, 16]: 60 to 74%; pest or weed control at 70 g/ha [2, 17]: 0 to 29%; pest or weed control at 140 g/ha [2, 17]: 0 to 29%; melting point: 214 to 217 °C"
